Measured values as given in PMC7587356, “High-Throughput Screening for Inhibitors of the SARS-CoV-2 Protease Using a FRET-Biosensor” (Molecules, 2020).
Counter-ions that a name gives are not always drawn. Like-named read-outs stand apart in the source and are kept apart here.

Molecular target: SARS-CoV-2 3CLpro (Severe acute respiratory syndrome coronavirus 2, UniProt P0DTD1)
Experiment: biochemical
Format: biochemical
Design: Replicate_1 / Replicate_2 / mean / mean (LOPAC_screen_w_protease): unit not given here
Conditions: for inhibition at 5 µM: 4 h
[1] = LOPAC1280 primary screen with protease, 5 µM compound, mean of two replicates
[2] = LOPAC1280 primary screen with protease, 5 µM compound, replicate 1
[3] = LOPAC1280 primary screen with protease, 5 µM compound, replicate 2
[4] = LOPAC1280 primary screen with protease, 5 µM compound, mean of the two replicates
[5] = sheet LOPAC_screen_w_protease, LOPAC1280 primary screen with protease, 5 µM compound, mean of the two replicates
[6] = sheet LOPAC_screen_w_protease, LOPAC1280 primary screen with protease, 5 µM compound, replicate 1
[7] = sheet LOPAC_screen_w_protease, LOPAC1280 primary screen with protease, 5 µM compound, replicate 2
[8] = sheet LOPAC_screen_w_protease, primary screen with protease, compound at 5 µM, mean of two replicates, read-out: mean
[9] = sheet LOPAC_screen_w_protease, primary screen with protease, compound at 5 µM, replicate 1, read-out: Replicate_1
[10] = sheet LOPAC_screen_w_protease, primary screen with protease, compound at 5 µM, replicate 2, read-out: Replicate_2
[11] = sheet LOPAC_screen_w_protease, primary screen with protease, 5 µM, mean of two replicates, read-out: mean
[12] = sheet LOPAC_screen_w_protease, primary screen with protease, 5 µM, replicate 1, read-out: Replicate_1
[13] = sheet LOPAC_screen_w_protease, primary screen with protease, 5 µM, replicate 2, read-out: Replicate_2
[14] = sheet LOPAC_screen_w_protease, primary screen of LOPAC1280 at 5 µM with protease, mean of the two replicates
[15] = sheet LOPAC_screen_w_protease, primary screen of LOPAC1280 at 5 µM with protease, replicate 1
[16] = sheet LOPAC_screen_w_protease, primary screen of LOPAC1280 at 5 µM with protease, replicate 2
[17] = sheet LOPAC_screen_w_protease, LOPAC1280 primary screen at 5 µM, with protease, mean of the two replicates
[18] = sheet LOPAC_screen_w_protease, LOPAC1280 primary screen at 5 µM, with protease, replicate 1
[19] = sheet LOPAC_screen_w_protease, LOPAC1280 primary screen at 5 µM, with protease, replicate 2
[20] = sheet LOPAC_screen_w_protease, primary screen at 5 µM, mean of two replicates
[21] = sheet LOPAC_screen_w_protease, primary screen at 5 µM, replicate 1
[22] = sheet LOPAC_screen_w_protease, primary screen at 5 µM, replicate 2
[23] = LOPAC1280 primary screen with protease, 5 µM compound, replicate 1, read-out: Replicate_1 (LOPAC_screen_w_protease)
[24] = LOPAC1280 primary screen with protease, 5 µM compound, replicate 2, read-out: Replicate_2 (LOPAC_screen_w_protease)
[25] = sheet LOPAC_screen_w_protease, LOPAC1280 primary screen at 5 µM, with protease, mean of the two replicates, read-out: mean
[26] = sheet LOPAC_screen_w_protease, LOPAC1280 primary screen at 5 µM, with protease, replicate 1, read-out: Replicate_1
[27] = sheet LOPAC_screen_w_protease, LOPAC1280 primary screen at 5 µM, with protease, replicate 2, read-out: Replicate_2

O=C(c1ccc2c(c1)OCCO2)N1CCCCC1 [CX 546]
Replicate_1: 1.108 | Replicate_2: -1.5724 | mean: -0.2323

CP(=O)(O)CCCN.Cl [SKF 97541 hydrochloride]
mean (LOPAC_screen_w_protease) [1]: 1.5203 | Replicate_1 (LOPAC_screen_w_protease) [2]: 0.8621 | Replicate_2 (LOPAC_screen_w_protease) [3]: 2.1785

CC(=O)NBr [N-Bromoacetamide]
mean (LOPAC_screen_w_protease) [4]: 1.955 | Replicate_1 (LOPAC_screen_w_protease) [2]: 1.503 | Replicate_2 (LOPAC_screen_w_protease) [3]: 2.407

NCCCC(=O)O [GABA]
mean (LOPAC_screen_w_protease) [1]: 1.638 | Replicate_1 (LOPAC_screen_w_protease) [2]: 1.648 | Replicate_2 (LOPAC_screen_w_protease) [3]: 1.628

N[C@@H](Cc1ccc(O)c(O)c1)C(=O)O [L-3,4-Dihydroxyphenylalanine]
mean [5]: 4.21 | Replicate_1 [6]: 5.679 | Replicate_2 [7]: 2.742

COc1cccc(OC)c1OCCNCC1CSc2ccccc2O1 (stereo not drawn) [Benoxathian hydrochloride]
inhibition at 5 µM [8]: 2.7% | inhibition at 5 µM [9]: 1.96% | inhibition at 5 µM [10]: 3.44%

Fc1ccc(C(c2ccc(F)cc2)N2CCN(C/C=C/c3ccccc3)CC2)cc1 [Flunarizine dihydrochloride]
inhibition at 5 µM [8]: 2.85% | inhibition at 5 µM [9]: 3.4% | inhibition at 5 µM [10]: 2.29%

COC(=O)[C@@H]1[C@H]2C[C@H]3c4[nH]c5ccccc5c4CCN3C[C@@H]2CC[C@@H]1O [Yohimbine hydrochloride]
inhibition at 5 µM [11]: 0.269% | inhibition at 5 µM [12]: -0.997% | inhibition at 5 µM [13]: 1.53%

CC(O)C(C)OC(=O)[C@@H]1C[C@@H]2c3cccc4c3c(cn4C(C)C)C[C@H]2N(C)C1.O=C(O)/C=C\C(=O)O (stereo partly drawn) [LY-53,857 maleate]
mean [14]: 3.324 | Replicate_1 [15]: 1.754 | Replicate_2 [16]: 4.894

Cn1c(=O)c2[nH]c(-c3ccccc3)nc2n(C)c1=O [1,3-Dimethyl-8-phenylxanthine]
mean [5]: 6.36 | Replicate_1 [6]: 5.626 | Replicate_2 [7]: 7.0953

N=C(N)NC(=O)Cc1c(Cl)cccc1Cl [Guanfacine hydrochloride]
inhibition at 5 µM [8]: 2.62% | inhibition at 5 µM [9]: 3.74% | inhibition at 5 µM [10]: 1.51%

CCCN(CCC)[C@@H]1CCc2c(F)ccc(O)c2C1.Cl [R(+)-UH-301 hydrochloride]
mean (LOPAC_screen_w_protease) [1]: 1.335 | Replicate_1 (LOPAC_screen_w_protease) [2]: 1.567 | Replicate_2 (LOPAC_screen_w_protease) [3]: 1.103

R(-)-SCH-12679 maleate
mean [17]: 0.5011 | Replicate_1 [18]: 0.9263 | Replicate_2 [19]: 0.07597

CCC(NC(C)C)C(O)c1ccc(O)c(O)c1.CS(=O)(=O)O (stereo not drawn) [Isotharine mesylate]
mean (LOPAC screen with protease) [20]: 8.447 | Replicate_1 (LOPAC screen with protease) [21]: 8.4794 | Replicate_2 (LOPAC screen with protease) [22]: 8.416

C[C@@H](N)[C@H]1CC[C@H](C(=O)Nc2ccncc2)CC1.Cl.Cl [Y-27632 dihydrochloride]
mean (LOPAC_screen_w_protease) [1]: 1.325 | Replicate_1 (LOPAC_screen_w_protease) [2]: 2.12 | Replicate_2 (LOPAC_screen_w_protease) [3]: 0.5298

C[n+]1cc2c3c(ccc2c2ccc4cc5c(cc4c21)OCO5)OCO3 [Sanguinarine chloride]
inhibition at 5 µM (read-out: Replicate_1 (LOPAC screen with protease)): 46.2% | inhibition at 5 µM (read-out: Replicate_2 (LOPAC screen with protease)): 43.3% | inhibition at 5 µM (read-out: mean (LOPAC screen with protease)): 44.8%

Cn1c(=O)[nH]c2ncn(C)c2c1=O [1,7-Dimethylxanthine]
inhibition at 5 µM [23]: 1.95% | inhibition at 5 µM [24]: 1.66% | mean (LOPAC_screen_w_protease) [4]: 1.802

Cc1ccc(S(=O)(=O)N[C@@H](Cc2ccccc2)C(=O)CCl)cc1
mean (LOPAC screen with protease) [20]: 61.4515 | Replicate_1 (LOPAC screen with protease) [21]: 61.5523 | Replicate_2 (LOPAC screen with protease) [22]: 61.3507

O=C(O)C1=CCNCC1 [Isoguvacine hydrochloride]
inhibition at 5 µM [23]: 2.64% | inhibition at 5 µM [24]: 1.29% | mean (LOPAC_screen_w_protease) [4]: 1.964

CC1=NN=C(c2ccc(N)cc2)c2cc3c(cc2C1)OCO3.Cl [GYKI 52466 hydrochloride]
mean [17]: 0.5948 | Replicate_1 [18]: 3.75 | Replicate_2 [19]: -2.56

CCSC(=N)Nc1ccc(C(F)(F)F)cc1.Cl [TFPI hydrochloride]
mean (LOPAC_screen_w_protease) [1]: 1.706 | Replicate_1 (LOPAC_screen_w_protease) [2]: 2.498 | Replicate_2 (LOPAC_screen_w_protease) [3]: 0.9137

NC(=O)c1cc(N2CC2)c([N+](=O)[O-])cc1[N+](=O)[O-] [CB 1954]
inhibition at 5 µM [23]: 0.308% | inhibition at 5 µM [24]: 3.06% | mean (LOPAC_screen_w_protease) [1]: 1.686

C[N+]1(C)[C@@H]2CC[C@H]1C[C@@H](OC(=O)C(CO)c1ccccc1)C2 (stereo partly drawn) [Atropine methyl nitrate]
inhibition at 5 µM [11]: -0.0687% | inhibition at 5 µM [12]: 0.687% | inhibition at 5 µM [13]: -0.825%

N=C(N)N/N=C/c1c(Cl)cccc1Cl [Guanabenz acetate]
inhibition at 5 µM (sheet LOPAC_screen_w_protease, LOPAC1280 at 5 µM, mean of two replicates, read-out: mean): 1.09% | inhibition at 5 µM (sheet LOPAC_screen_w_protease, LOPAC1280 at 5 µM, replicate 1, read-out: Replicate_1): 2.57% | inhibition at 5 µM (sheet LOPAC_screen_w_protease, LOPAC1280 at 5 µM, replicate 2, read-out: Replicate_2): -0.398%

O=C(O)[C@@H]1C[C@H](C(=O)O)N1 [cis-Azetidine-2,4-dicarboxylic acid]
mean (LOPAC_screen_w_protease) [1]: 1.501 | Replicate_1 (LOPAC_screen_w_protease) [2]: 1.545 | Replicate_2 (LOPAC_screen_w_protease) [3]: 1.457

CC(C[N+](C)(C)C)OC(N)=O (stereo not drawn) [Bethanechol chloride]
inhibition at 5 µM [23]: 0.465% | inhibition at 5 µM [24]: 2.25% | mean (LOPAC_screen_w_protease) [1]: 1.356

CC(C)C[C@H]1C(=O)N2CCC[C@H]2[C@]2(O)O[C@](NC(=O)[C@@H]3C=C4c5cccc6[nH]c(Br)c(c56)C[C@H]4N(C)C3)(C(C)C)C(=O)N12.CS(=O)(=O)O [(+)-Bromocriptine methanesulfonate]
mean (LOPAC_screen_w_protease) [4]: 1.984 | Replicate_1 (LOPAC_screen_w_protease) [2]: 2.405 | Replicate_2 (LOPAC_screen_w_protease) [3]: 1.562

C[N+]1(C)C2CCC1CC(OC(=O)c1c[nH]c3ccccc13)C2.[I-] (stereo not drawn)
mean [14]: 3.717 | Replicate_1 [15]: 3.9921 | Replicate_2 [16]: 3.441

CCCN(CCC)C(=O)C(CCC(=O)O)NC(=O)c1ccccc1 (stereo not drawn) [Proglumide]
inhibition at 5 µM (sheet LOPAC_screen_w_protease, LOPAC1280 primary screen with protease, 5 µM compound, mean of the two replicates, read-out: mean): 4.27% | inhibition at 5 µM (sheet LOPAC_screen_w_protease, LOPAC1280 primary screen with protease, 5 µM compound, replicate 1, read-out: Replicate_1): 4.11% | inhibition at 5 µM (sheet LOPAC_screen_w_protease, LOPAC1280 primary screen with protease, 5 µM compound, replicate 2, read-out: Replicate_2): 4.43%

CC[N+](CC)(CC)CCOc1ccc(/C=C/c2ccccc2)cc1 [MG 624]
inhibition at 5 µM (sheet LOPAC_screen_w_protease, primary screen at 5 µM, mean of two replicates, read-out: mean (LOPAC screen with protease)): 11.8% | inhibition at 5 µM (sheet LOPAC_screen_w_protease, primary screen at 5 µM, replicate 1, read-out: Replicate_1 (LOPAC screen with protease)): 10.3% | inhibition at 5 µM (sheet LOPAC_screen_w_protease, primary screen at 5 µM, replicate 2, read-out: Replicate_2 (LOPAC screen with protease)): 13.3%

S=C([S-])OC1CC2CC1C1CCCC21.[K+] [D-609 potassium]
mean (sheet LOPAC_screen_w_protease, LOPAC1280 primary screen at 5 µM, with protease, mean of two replicates): -1.918 | Replicate_1 [18]: -2.8235 | Replicate_2 [19]: -1.0122

NCCc1c[nH]c2ccccc12 [Tryptamine hydrochloride]
inhibition at 5 µM [25]: 0.461% | inhibition at 5 µM [26]: 0.957% | inhibition at 5 µM [27]: -0.0349%

O=C(C1CCCCC1)N1CC(=O)N2CCc3ccccc3C2C1 (stereo not drawn) [Praziquantel]
inhibition at 5 µM (sheet LOPAC_screen_w_protease, primary screen of LOPAC1280 at 5 µM with protease, mean of the two replicates, read-out: mean): 3.73% | inhibition at 5 µM (sheet LOPAC_screen_w_protease, primary screen of LOPAC1280 at 5 µM with protease, replicate 1, read-out: Replicate_1): 3.31% | inhibition at 5 µM (sheet LOPAC_screen_w_protease, primary screen of LOPAC1280 at 5 µM with protease, replicate 2, read-out: Replicate_2): 4.15%

O=C(O)C=Cc1c[nH]cn1 [4-Imidazoleacrylic acid]
mean (sheet LOPAC_screen_w_protease, LOPAC1280 at 5 µM, mean of two replicates): 0.9588 | Replicate_1 (sheet LOPAC_screen_w_protease, LOPAC1280 at 5 µM, replicate 1): 1.559 | Replicate_2 (sheet LOPAC_screen_w_protease, LOPAC1280 at 5 µM, replicate 2): 0.3591

NC(N)=NCCCCN=C(N)N [Arcaine sulfate]
inhibition at 5 µM [25]: 0.608% | inhibition at 5 µM [26]: 1.59% | inhibition at 5 µM [27]: -0.37%
